Assay results published in paper PMC10388327, “Dual Piperidine-Based Histamine H3 and Sigma-1 Receptor Ligands in the Treatment of Nociceptive and Neuropathic Pain” (Journal of Medicinal Chemistry, 2023).
Where a name gives a salt, the structure may show the parent alone. Read-outs that look alike come from different tables or passages of the source.

Tests used:
[1] = biological target: H3R; parameters: method as in PMID 30359639; settings: Figure 1, compounds evaluated in clinical trials; cited from earlier work
[2] = system: mice; experiment: loperamide-induced antinociception (paw pressure, struggle response latency); assay type: in vivo, Female CD1 mice; settings: for reversal of potentiation of loperamide-induced antinociception by S1RA and 12: PRE-084 75 μg i.pl., naloxone-methiodide 2 mg/kg s.c.
[3] = parallel artificial membrane permeability assay (PAMPA); assay type: in vitro ADME; settings: 100 μM in PBS pH 7.4, RT, read-out: Pe (permeability coefficient)
[4] = biological target: T1, human recombinant histamine H3R (Homo sapiens, UniProt Q9Y5N1); settings: read-out: hH3R Ki [nM] x̄ [CI 95%]; mean [CI 95%]; recalculated from published data; cited from earlier work
T1 construct: expressed in transfected cells
T1 sequence (Q9Y5N1 whole entry): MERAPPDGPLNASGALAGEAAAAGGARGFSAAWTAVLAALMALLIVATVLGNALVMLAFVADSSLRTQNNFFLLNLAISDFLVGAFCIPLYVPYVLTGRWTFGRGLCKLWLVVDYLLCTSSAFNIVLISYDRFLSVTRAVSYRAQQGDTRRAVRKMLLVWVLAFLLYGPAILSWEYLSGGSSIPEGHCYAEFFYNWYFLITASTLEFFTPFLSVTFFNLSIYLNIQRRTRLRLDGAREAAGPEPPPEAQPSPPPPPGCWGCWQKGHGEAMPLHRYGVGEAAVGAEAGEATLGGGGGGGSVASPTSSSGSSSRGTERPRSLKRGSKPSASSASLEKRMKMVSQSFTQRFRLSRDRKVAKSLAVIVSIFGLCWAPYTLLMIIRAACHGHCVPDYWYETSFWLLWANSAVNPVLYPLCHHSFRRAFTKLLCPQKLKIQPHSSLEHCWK

[5] = biological target: T2, sigma-1 receptor (σ1R) (Cavia porcellus, UniProt Q60492); experiment: σ1R radioligand binding ([3H](+)-pentazocine); parameters: species or system guinea pig; settings: read-out: σ1R Ki [nM] x̄ [CI 95%]; mean [CI 95%]
T2 construct: The thawed membrane preparation of the guinea pig brain cortex was incubated; from tissue; host or cells: male Dunkin-Hartley guinea pig brain cortex membranes
T2 sequence (Q60492 whole entry): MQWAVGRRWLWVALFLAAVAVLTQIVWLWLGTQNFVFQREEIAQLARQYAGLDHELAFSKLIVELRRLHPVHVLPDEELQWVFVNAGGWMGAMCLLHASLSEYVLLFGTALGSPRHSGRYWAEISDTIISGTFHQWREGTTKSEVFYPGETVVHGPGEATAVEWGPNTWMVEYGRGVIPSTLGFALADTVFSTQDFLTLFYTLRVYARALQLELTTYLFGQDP

[6] = biological target: T3, sigma-2 receptor (σ2R) (Rattus norvegicus, UniProt Q5U3Y7); experiment: σ2R radioligand binding ([3H]DTG); settings: read-out: σ2R Ki [nM] x̄ [CI 95%]; mean [CI 95%]
T3 construct: The thawed membrane preparation of rat liver was incubated; from tissue; host or cells: Sprague-Dawley rat liver membranes
T3 sequence (Q5U3Y7 1-176): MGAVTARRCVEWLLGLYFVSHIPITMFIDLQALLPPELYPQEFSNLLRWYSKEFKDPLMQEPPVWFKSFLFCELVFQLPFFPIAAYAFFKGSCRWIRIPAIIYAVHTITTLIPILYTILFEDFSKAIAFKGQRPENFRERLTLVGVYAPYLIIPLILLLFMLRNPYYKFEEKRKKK

[7] = observation during crystallization
[8] = pKa determination by potentiometric titration; assay type: physicochemical; settings: for pKa: aqueous solution
Experimental: In addition, we tested the amino alcohol fragments of these compounds to carefully monitor the influence of individual protonated nitrogen atoms on the obtained pKa values (Figure 4). […] Based on a previously modified potentiometric procedure,[27],[28] a series of titrations were performed, and the pKa values were determined using the Kostrowicki and Liwo algorithm.[29],[30] […] That explains the surprising result of free base crystallization attempts where iodide salt was obtained instead of the neutral form. On the other hand, in the same environment, KSK94 exists in two forms: the monoprotonated form [HL^+] (20.56%) and the free ligand [L] (77.72%, Figure 5). […] KSK68 can be characterized as a basic ligand with pKa1 = 4.9 (pyridine N) and pKa2 = 8.4 (piperidine N). The pKa values are consistent with those determined by the same procedure for the corresponding amino alcohol 3-(4-(pyridin-4-yl)piperidin-1-yl)propan-1-ol (Figure 4). […] A similarly low pKa2 value for the N7 piperazine nitrogen atom was also determined for the corresponding amino alcohol 3-(4-(pyridin-4-yl)piperazin-1-yl)propan-1-ol (Figure 4), which is in agreement with the value obtained for 1-phenyl-4-methyl piperazine reported in the literature.[31] […] The lowest value was determined for 4-nitrophenyl, and the highest was for 2-methylphenyl derivatives.[32]
The potentiometric microtitration was performed in a thermostated 20 mL cell using a CerkoLab microtitration unit fitted with a pH electrode (Hydromet ERH-13-6). The electrode was calibrated with the use of buffer solutions: pH = 4.00, 7.00, and 10.00. Titrant T (0.1 M KOH) was standardized according to the general analytical procedure and protected from carbon dioxide. Double distilled water with a conductivity of about 0.18 mS/cm was used to prepare all aqueous solutions. DMSO (HPLC grade, 99.5%) was supplied by Sigma Aldrich. The concentration of the titrant solution (D) was 0.0025–0.005 M. The solubilization procedure was follows: The appropriate amount of KSK compound was dissolved in 1 mL 0.1 M HCl and 1 mL DMSO to prepare a 25 mL stock solution. The developed solubilization system can be recommended for poorly soluble derivatives. The analytical procedure was a follows: volume V0 = 4.5 mL of titrant D was titrated with 0.1 M titrant T using the CerkoLab System equipped with a 5 mL syringe pump.

[9] = biological target: T1, human recombinant histamine H3R; experiment: hH3R radioligand binding ([3H]Nα-methylhistamine depletion assay); settings: read-out: hH3R Ki [nM] x̄ [CI 95%]; mean [CI 95%]; HEK-293 cells
[10] = system: mice; experiment: motor coordination in the rotarod test; assay type: in vivo; settings: 15 mg/kg i.p.; 6, 18 and 24 rpm
Text: The neurotoxicity of the new compounds can result in impaired motor functions of the experimental animals, which may subsequently cause false interpretation of the results of in vivo tests. Understandably, neurotoxicity is also the frequent reason for eliminating the tested compound from further studies. To minimize that risk, we investigated the influence of our lead structures on motor coordination in the rotarod test, which is the classical test used for assessing motor coordination and balance in rodents. It provides a quick and simple estimation of neuromuscular coordination. […] The time spent on the rotarod apparatus was 60 s for each control mouse.
The test was carried out on the semiautomatic rotarod apparatus (Rotarod apparatus Panlab/Harvard Apparatus, LE 8200, Spain) according to the method previously described in the literature.[85] The mice were trained for 3 days on the rod rotating at a constant speed of 18 rotations per minute (rpm). During each training session, the animals were placed on the rod for 3 min with an unlimited number of trials. On the test day (24 h after the final training trial), 30 min before the rotarod test, the mice were pretreated (i.p.) with the test compound (15 mg/kg). Then, the animals were tested on the rotarod revolving at 6, 18, and then 24 rpm. Motor impairments, defined as the inability to remain on the rotating rod for 1 min, were measured at each speed.

[11] = system: mice; experiment: formalin test; assay type: in vivo; settings: for ED50: Mus musculus, ip
Text: The formalin test is one of the most useful screening models for testing potentially clinically relevant antinociceptive molecules because of its ease of administration, standardization, and validation with reference drugs.[50] The subcutaneous injection of formalin results in a focal injury that stimulates and then damages sensory endings. Two distinct phases of nociceptive response are associated with the immediate activation of nociceptors and sensitization of spinal reflex circuits during phase I and II responses, respectively.[51]
The procedure used was essentially the same as that described previously.[86],[87] Briefly, 20 μL of 1.5% formalin solution was injected intraplantarly (i.pl.) into the mice right hind paw using a 26-gauge needle. […] The total time (in seconds) spent on licking the injected paw during periods of 0–5 min (early phase, neurogenic) and 15–30 min (late phase, inflammatory) was measured and was considered as an indicator of nociceptive behavior. Before formalin injection, different groups of mice were treated i.p. with the vehicle (10 mL/kg, negative control) and the varying doses of 12 (5, 10, 15, and 30 mg/kg).

[12] = system: sigma-1 receptor (σ1R); experiment: σ1R radioligand binding ([3H](+)-pentazocine); parameters: species or system guinea pig; settings: ratio of σ2R Ki to σ1R Ki
[13] = system: mice; experiment: spontaneous locomotor activity; assay type: in vivo; settings: 15 mg/kg i.p.
Experimental: The high sedative activity of analgesics is considered an undesirable property, which may lead to an incorrect or ambiguous interpretation of the in vivo results. Moreover, it may limit the potential clinical application of new drug candidates.
This test was carried out according to the procedure described elsewhere.[84] The animals were injected (i.p.) with 12 at doses of 5, 15, and 30 mg/kg and placed in the activity cages individually (30 min before the experiment). The number of light-beam crossings was counted in each group during the next 30 min in 10 min intervals.

[14] = biological target: T4, human histamine H1 receptor (hH1R) (Homo sapiens, UniProt P35367); experiment: hH1R radioligand binding ([3H]mepyramine); settings: read-out: hH1R (Ki [nM] x̅ [CI 95%]); HEK293T cells; n = 3, triplicate
T4 construct: SP (signal peptide) (N); FLAG (N); expressed in transfected cells
T4 sequence (P35367 whole entry): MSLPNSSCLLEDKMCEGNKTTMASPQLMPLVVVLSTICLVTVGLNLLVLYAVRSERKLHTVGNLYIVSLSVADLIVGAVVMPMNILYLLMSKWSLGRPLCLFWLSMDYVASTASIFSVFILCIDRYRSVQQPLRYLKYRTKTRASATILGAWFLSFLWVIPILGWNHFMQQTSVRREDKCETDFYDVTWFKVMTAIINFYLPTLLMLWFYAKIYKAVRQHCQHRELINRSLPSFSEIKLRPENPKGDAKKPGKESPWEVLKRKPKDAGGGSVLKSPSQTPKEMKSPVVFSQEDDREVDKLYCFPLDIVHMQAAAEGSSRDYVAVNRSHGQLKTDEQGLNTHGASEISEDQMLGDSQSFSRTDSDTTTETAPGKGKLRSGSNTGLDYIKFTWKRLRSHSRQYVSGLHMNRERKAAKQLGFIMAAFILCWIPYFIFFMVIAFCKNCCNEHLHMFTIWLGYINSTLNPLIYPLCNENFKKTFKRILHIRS
Experimental: (§1) To check the selectivity profile of our lead structures, radioligand binding studies at other histamine receptor subtypes were carried out. […] Obtained results clearly indicate the high selectivity of the tested derivatives toward human H3R (Table 3).
(§2) Compounds (as oxalate salts) were tested in H3R in vitro binding studies using the methods described previously.[21]−[23] […] Radioligand binding experiments at the H1R, H2R, and H4R were performed as previously described in Rosier et al.[65] and Bartole et al.[66] […] Data represent mean values ± CI from three independent experiments, each performed in triplicate. The normalized competition binding curves were then fitted with a four-parameter logistic fit yielding IC50 values using the Prism 8.4.3 software (GraphPad, San Diego, CA). The Ki values were estimated from the Cheng–Prusoff equation.[69]

[15] = biological target: T5, human histamine H2 receptor (hH2R) (Homo sapiens, UniProt P25021); experiment: hH2R radioligand binding ([3H]UR-DE257); settings: HEK293T cells, n = 3, triplicate
T5 construct: SP (signal peptide) (N); FLAG (N); expressed in transfected cells
T5 sequence (P25021 whole entry): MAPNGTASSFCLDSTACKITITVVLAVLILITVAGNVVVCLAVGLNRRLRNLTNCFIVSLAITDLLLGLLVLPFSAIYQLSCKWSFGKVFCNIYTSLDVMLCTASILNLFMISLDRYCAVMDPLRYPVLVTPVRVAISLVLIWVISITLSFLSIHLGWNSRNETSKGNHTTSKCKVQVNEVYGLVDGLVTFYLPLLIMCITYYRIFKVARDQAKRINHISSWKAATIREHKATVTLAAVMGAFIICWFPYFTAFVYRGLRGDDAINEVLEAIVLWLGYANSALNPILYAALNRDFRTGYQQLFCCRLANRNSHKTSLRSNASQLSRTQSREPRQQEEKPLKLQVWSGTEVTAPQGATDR
Experimental: as §1, §2

[16] = biological target: T6, human histamine H4 receptor (hH4R) (Homo sapiens, UniProt Q9H3N8); experiment: hH4R radioligand binding ([3H]UR-PI294); settings: read-out: hH4R (Ki [nM] x̅ [CI 95%]); HEK293T cells; n = 3, triplicate
T6 construct: SP (signal peptide) (N); FLAG (N); expressed in transfected cells
T6 sequence (Q9H3N8 whole entry): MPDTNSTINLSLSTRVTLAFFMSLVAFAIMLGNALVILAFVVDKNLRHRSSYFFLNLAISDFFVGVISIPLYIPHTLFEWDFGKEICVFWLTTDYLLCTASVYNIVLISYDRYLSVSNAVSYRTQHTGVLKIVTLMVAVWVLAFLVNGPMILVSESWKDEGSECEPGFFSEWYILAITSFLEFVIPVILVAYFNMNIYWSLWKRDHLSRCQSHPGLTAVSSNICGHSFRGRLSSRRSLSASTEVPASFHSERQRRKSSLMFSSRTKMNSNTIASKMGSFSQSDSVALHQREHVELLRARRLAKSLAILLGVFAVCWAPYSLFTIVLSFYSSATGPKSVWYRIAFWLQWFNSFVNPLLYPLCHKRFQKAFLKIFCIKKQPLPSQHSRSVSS
Experimental: as §1, §2

[17] = Figure 5, species distribution from titration curves
[18] = experimental, potentiometric titration
[19] = 0–5 min after formalin, read-out: ED50, formalin test phase I (acute phase)
[20] = 15–30 min after formalin, read-out: ED50, formalin test phase II (late phase)

## Cc1cc(OCCN2CCOCC2)nn1-c1ccc2ccccc2c1 [Compound S1RA, 4-[2-[[5-methyl-1-(2-naphthalenyl)1H-pyraol-3-yl]oxy]ethyl]morpholine hydrochloride]
[1]
  Ki: > 10000 nM
[2]; concluded from PRE-084 reversal
  in vivo σ1 receptor functional profile: σ1 receptor antagonists
[2]; i.pl. with loperamide 4 mg/kg s.c., injected paw
  effect on loperamide-induced antinociception: significantly and dose-dependently (50–100 μg) increased the antinociceptive effect induced by loperamide
[2]; i.pl., S1RA 100 μg, 12 25 μg, 450 g pressure
  effect alone on struggle response latency: did not change the response to the mechanical stimulus
[3]
  Papp at 5 h, 100 µM: 5.26 ×10⁻⁶ cm/s

## Cl.O=C(OCCN1CCOCC1)C1(c2ccccc2)CCCCC1 [PRE-084, 2-[4-morpholinethyl]1-phenylcyclohexanecarboxylate hydrochloride]
[2]
  reversal of potentiation of loperamide-induced antinociception by S1RA and 12: markedly reverse the effect of these compounds on loperamide-induced antinociception

## c1ccc(-c2ccc(OCCCCCN3CCCCC3)cc2)cc1 [Compound 10, 1-(5-([1,1′-Biphenyl]-4-yloxy)pentyl)piperidine Oxalate]
[4]
  Ki: 21.7 nM
[5]
  Ki: 140 nM
[6]
  Ki: 19 nM

## CCN1CCCC1CNC(=O)c1cc(S(N)(=O)=O)ccc1OC (centres unmarked) [sulpiride, reference compound]
[3]
  Papp at 5 h, 100 µM: 0.05 ×10⁻⁶ cm/s

## CN(C)C(=O)C(CCN1CCC(O)(c2ccc(Cl)cc2)CC1)(c1ccccc1)c1ccccc1 [loperamide]
[2]; 4 mg/kg s.c.
  effect of loperamide alone on struggle response latency: minimal (nonsignificant) increase in the struggle response latency

## c1cc(OCCCN2CCCCC2)ccc1CN1CCCCC1 [JNJ-5207852]
[1]
  Ki: 0.3 nM

## O=C(c1ccc(OCCCN2CCC(c3ccncc3)CC2)cc1)C1CC1 [KSK68]
[7]
  solubility in water: more soluble in H2O than KSK67
[8]; [17]
  pK of equilibrium H2L+2 = H+ + HL+: 4.94
  pK of equilibrium HL+ = H+ + L0: 8.38
[8]; aqueous solution at physiological pH
  monoprotonated form [HL+]: approximately 90%
[8]; experimental, potentiometric titration, read-out: pKa1
  pKa: 4.9
[8]; experimental, potentiometric titration, read-out: pKa2
  pKa: 8.4
[8]; [18]
  pKa1: 4.94
  pKa2: 8.38

## C=CC[N+]1(C)CC[C@]23c4c5ccc(O)c4O[C@H]2C(=O)CC[C@@]3(O)[C@H]1C5 (some centres unmarked) [naloxone-methiodide]
[2]
  reversal of potentiation of loperamide-induced antinociception by S1RA and 12: the effect of S1RA and 12 was also reversed

## c1ccc(-c2ccc(OCCCN3CCCCCC3)cc2)cc1 [Compound 3, 1-(3-([1,1′-Biphenyl]-4-yloxy)propyl)azepane Oxalate]
[9]
  Ki: 4.3 nM
[10]
  influence on motor coordination, time on rotarod: significantly impaired the motor coordination of mice
[11]; [19]
  ED50: 14.2 mg/kg
[11]; [20]
  ED50: 13.3 mg/kg
[3]
  Papp at 5 h, 100 µM: 6.57 ×10⁻⁶ cm/s
[5]
  Ki: 1.9 nM
[12]
  σ2/σ1 ratio: 13.2
[13]
  influence on spontaneous locomotor activity (sedative effect): high and significant sedative effects
[14]
  Ki: 7620 nM
[15]; read-out: hH2R (Ki [nM] x̅ [CI 95%])
  Ki: > 10000 nM
[16]
  Ki: > 10000 nM
[6]
  Ki: 25 nM

## c1ccc(Nc2ccc(OCCCN3CCCCC3)cc2)cc1 [Compound 7, N-Phenyl-4-(3-(piperidin-1-yl)propoxy)aniline Oxalate]
[9]
  Ki: 5.2 nM
[10]
  influence on motor coordination, time on rotarod: significantly decreased the time spent on the rod at 18 and 24 rpm
[11]; [19]
  ED50: 11.9 mg/kg
[11]; [20]
  ED50: 11.7 mg/kg
[11]; i.p., 0–5 min after formalin
  ED50, formalin test phase I (acute phase): 11.95 mg/kg
[11]; i.p., 15–30 min after formalin
  ED50, formalin test phase II (late phase): 11.71 mg/kg
[3]
  Papp at 5 h, 100 µM: 10.6 ×10⁻⁶ cm/s
[5]
  Ki: 4.8 nM
[12]
  σ2/σ1 ratio: 24.2
[13]
  influence on spontaneous locomotor activity (sedative effect): high and significant sedative effects
[14]
  Ki: > 10000 nM
[15]
  Ki: > 10000 nM
[16]
  Ki: > 10000 nM
[6]
  Ki: 116 nM

## c1ccc(-c2ccc(OCCCCCCN3CCCCC3)cc2)cc1 [Compound 11, 1-(6-([1,1′-Biphenyl]-4-yloxy)hexyl)piperidine Oxalate]
[4]
  Ki: 88.9 nM
[5]
  Ki: 118 nM
[6]
  Ki: 46 nM
